Reference: PubChem BioAssay (NCI)
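Five compound concentrations were applied to cells in 96-well plates for 48 hours; endpoints were derived by simple linear interpolation of the resulting dose-response curve. GI50 marks 50% less growth. TGI denotes the concentration required for complete inhibition of growth.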

What was measured:
Assay in all cases: inhibition of tumour cell growth, NCI panel, 48 h
MDA-MB-468 breast = system: MDA-MB-468 breast
A498 renal = system: A498 renal
ACHN renal = system: ACHN renal
BT-549 breast = system: BT-549 breast
CAKI-1 renal = system: CAKI-1 renal
CCRF-CEM leukemia = system: CCRF-CEM leukemia
DU-145 prostate = system: DU-145 prostate
EKVX NSCLC = system: EKVX NSCLC
HCC-2998 colon = system: HCC-2998 colon
HCT-15 colon = system: HCT-15 colon
HL-60(TB) leukemia = system: HL-60(TB) leukemia
HOP-92 NSCLC = system: HOP-92 NSCLC
HS 578T breast = system: HS 578T breast
HT29 colon = system: HT29 colon
IGROV1 ovarian = system: IGROV1 ovarian
K-562 leukemia = system: K-562 leukemia
LOX IMVI melanoma = system: LOX IMVI melanoma
MALME-3M melanoma = system: MALME-3M melanoma
MCF7 breast = system: MCF7 breast
MDA-MB-231 breast = system: MDA-MB-231 breast
MDA-MB-435 = system: MDA-MB-435
MOLT-4 leukemia = system: MOLT-4 leukemia
NCI-H23 lung = system: NCI-H23 lung
NCI-H460 lung = system: NCI-H460 lung
NCI-H522 lung = system: NCI-H522 lung
NCI/ADR-RES ovarian = system: NCI/ADR-RES ovarian
OVCAR-3 ovarian = system: OVCAR-3 ovarian
OVCAR-5 ovarian = system: OVCAR-5 ovarian
RXF 393 renal = system: RXF 393 renal
SF-268 CNS = system: SF-268 CNS
SF-295 CNS = system: SF-295 CNS
SF-539 CNS = system: SF-539 CNS
SK-MEL-2 melanoma = system: SK-MEL-2 melanoma
SK-MEL-28 melanoma = system: SK-MEL-28 melanoma
SK-MEL-5 melanoma = system: SK-MEL-5 melanoma
SK-OV-3 ovarian = system: SK-OV-3 ovarian
SN12C renal = system: SN12C renal
SNB-19 CNS = system: SNB-19 CNS
SNB-75 CNS = system: SNB-75 CNS
SR leukemia = system: SR leukemia
SW-620 colon = system: SW-620 colon
TK-10 renal = system: TK-10 renal
UACC-257 melanoma = system: UACC-257 melanoma
UACC-62 melanoma = system: UACC-62 melanoma
UO-31 renal = system: UO-31 renal

`Cc1cc(N2CCC(N3CCCC3)CC2)nc(/N=C(\N)Nc2ccc(Cl)c(Cl)c2)n1` gave a GI50 (MDA-MB-468 breast) of 1400 nM and a TGI (MDA-MB-468 breast) of 2730 nM.
Molecule `COc1cc(-c2nc(-c3ccccc3)c(-c3ccccc3)[nH]2)cc(OC)c1O` has a GI50 (MDA-MB-468 breast) of 15200 nM and a TGI (MDA-MB-468 breast) of 37700 nM.
Work on `CC1(C)CC(O)CC(C)(C)N1O` yielded a GI50 (MDA-MB-468 breast) greater than 100000 nM and a TGI (MDA-MB-468 breast) greater than 100000 nM.
For `CNC(=O)CCN1CCN(CC/C=C2\c3ccccc3Sc3ccc(Cl)cc32)CC1`, the GI50 (MDA-MB-468 breast) was 3630 nM and the TGI (MDA-MB-468 breast) was 16900 nM.
Work on `Cn1c(=O)c(-c2ccccc2Cl)cc2cnc(NC3CCOCC3)nc21` yielded a GI50 (MDA-MB-468 breast) greater than 19900 nM and a TGI (MDA-MB-468 breast) greater than 25000 nM.
`Nc1ccc(CC[C@H]2CCC/C=C/[C@@H]3C[C@H](O)C[C@H]3[C@H](O)/C=C/C(=O)O2)cc1` gave a GI50 (MDA-MB-468 breast) of 10.6 nM and a TGI (MDA-MB-468 breast) of 37.4 nM.
Work on `COC(=O)c1c(C)nc(C)c2c1C(=O)C(Br)=C(NCc1ccccc1)C2=O` yielded a GI50 (MDA-MB-468 breast) of 1110 nM and a TGI (MDA-MB-468 breast) of 2750 nM.
`Cc1ccc(NCCNCC(C)(C)O)c2c(=O)c3ccc(Cl)cc3sc12` was tested, and the GI50 (MDA-MB-468 breast) was 1700 nM and the TGI (MDA-MB-468 breast) was 3240 nM.
`COc1cccc(C2CC(=O)Nc3c2c(C)nn3-c2nc3ccccc3[nH]2)c1OC` (centres undefined) was tested, and the GI50 (MDA-MB-468 breast) was 4110 nM and the TGI (MDA-MB-468 breast) was 32600 nM.
Molecule `[O]=[Sn]([CH]1CCCCC1)[CH]1CCCCC1` has a GI50 (MDA-MB-468 breast) of 97.7 nM and a TGI (MDA-MB-468 breast) of 250 nM.
With `COc1cc(C(=O)c2cnc(-c3c[nH]c4cccc(C)c34)[nH]2)cc(OC)c1OC` the GI50 (MDA-MB-468 breast) was 2.64 nM.
Work on `Cc1ccc(-c2nc(NCCOCCOCCN)nc(N3CCN(c4ccccn4)CC3)n2)cc1` yielded a GI50 (MDA-MB-468 breast) of 7040 nM and a TGI (MDA-MB-468 breast) of 18000 nM.
For `N[C@@H]1CCCN(c2c(Br)cnc3[nH]cc(NC(=O)C4CC4)c23)C1`, the GI50 (MDA-MB-468 breast) was 2110 nM and the TGI (MDA-MB-468 breast) was 36200 nM.
With `[Br][Pb]([c]1ccccc1)([c]1ccccc1)[c]1ccccc1` the GI50 (MDA-MB-468 breast) was 148 nM and the TGI (MDA-MB-468 breast) was 294 nM.
For `NC(=NCCCCCCN=C(N)/N=C(\N)Nc1ccc(Cl)cc1)/N=C(\N)Nc1ccc(Cl)cc1`, the GI50 (MDA-MB-468 breast) was 952 nM and the TGI (MDA-MB-468 breast) was 2280 nM.
Work on `CCN(CC)CCOC(COc1cc(C)cc(C)c1)COc1cc(C)cc(C)c1` yielded a GI50 (MDA-MB-468 breast) of 1740 nM and a TGI (MDA-MB-468 breast) of 3550 nM.
Work on `O=C(/C=C/c1ccc(O)c(O)c1)N1CCN(c2ccc(Cl)cc2)CC1` yielded a GI50 (MDA-MB-468 breast) of 2450 nM and a TGI (MDA-MB-468 breast) of 13000 nM.
`CCN(CC)c1ccc(/C=N/NC(=O)Cc2ccc(Nc3ccnc(C(F)(F)F)c3)cc2)c(O)c1` gave a GI50 (MDA-MB-468 breast) of 588 nM and a TGI (MDA-MB-468 breast) greater than 60300 nM.
`O=C(Nc1cccc(-n2ccc3c(NC(=O)c4ccccc4)ncnc32)c1)Nc1ccc(Cl)c(C(F)(F)F)c1` was tested, and the GI50 (MDA-MB-468 breast) was 1480 nM and the TGI (MDA-MB-468 breast) was 6060 nM.
With `COc1ccc2nc3ccccc3c(NCCNCCO)c2c1` the GI50 (MDA-MB-468 breast) was 351 nM and the TGI (MDA-MB-468 breast) was 1370 nM.
`CC(=O)Nc1ccc(-c2cn(-c3cccc(C(=O)Nc4cc(CN5CCOCC5)cc(C(F)(F)F)c4)c3)nn2)cn1` showed a GI50 (A498 renal) of 2410 nM, a TGI (A498 renal) of 4570 nM and a GI50 (ACHN renal) of 1770 nM. For the same molecule, the TGI (ACHN renal) was 3260 nM, the GI50 (BT-549 breast) was 2590 nM and the TGI (BT-549 breast) was 4440 nM. For the same molecule, the GI50 (CAKI-1 renal) was 1910 nM, the TGI (CAKI-1 renal) was 3480 nM and the GI50 (CCRF-CEM leukemia) was 3340 nM. For the same molecule, the TGI (CCRF-CEM leukemia) was greater than 100000 nM, the GI50 (DU-145 prostate) was 2400 nM and the TGI (DU-145 prostate) was 5110 nM. The GI50 (EKVX NSCLC) was 2440 nM, the TGI (EKVX NSCLC) was 6130 nM and the GI50 (HCC-2998 colon) was 1940 nM. The TGI (HCC-2998 colon) was 3500 nM, the GI50 (HCT-15 colon) was 2030 nM and the TGI (HCT-15 colon) was 4110 nM. For the same molecule, the GI50 (HL-60(TB) leukemia) was 1330 nM, the TGI (HL-60(TB) leukemia) was 5470 nM and the GI50 (HOP-92 NSCLC) was 1950 nM. It also gave a TGI (HOP-92 NSCLC) of 4620 nM, a GI50 (HS 578T breast) of 1900 nM and a TGI (HS 578T breast) of 5040 nM. For the same molecule, the GI50 (HT29 colon) was 2000 nM, the TGI (HT29 colon) was 5970 nM and the GI50 (IGROV1 ovarian) was 2190 nM. It also gave a TGI (IGROV1 ovarian) of 5120 nM, a GI50 (K-562 leukemia) of 178 nM and a TGI (K-562 leukemia) greater than 100000 nM. For the same molecule, the GI50 (LOX IMVI melanoma) was 1420 nM, the TGI (LOX IMVI melanoma) was 2800 nM and the GI50 (MALME-3M melanoma) was 477 nM. For the same molecule, the TGI (MALME-3M melanoma) was 1820 nM, the GI50 (MCF7 breast) was 1720 nM and the TGI (MCF7 breast) was 3350 nM. For the same molecule, the GI50 (MDA-MB-231 breast) was 1230 nM, the TGI (MDA-MB-231 breast) was 2590 nM and the GI50 (MDA-MB-435) was 1580 nM. It also gave a TGI (MDA-MB-435) of 3290 nM, a GI50 (MDA-MB-468 breast) of 1650 nM and a TGI (MDA-MB-468 breast) of 3100 nM. It also gave a GI50 (MOLT-4 leukemia) of 3120 nM, a TGI (MOLT-4 leukemia) of 16700 nM and a GI50 (NCI-H23 lung) of 1630 nM. The TGI (NCI-H23 lung) was 3080 nM, the GI50 (NCI-H460 lung) was 2340 nM and the TGI (NCI-H460 lung) was 5110 nM. The GI50 (NCI-H522 lung) was 2040 nM, the TGI (NCI-H522 lung) was 4820 nM and the GI50 (NCI/ADR-RES ovarian) was 9400 nM. It also gave a TGI (NCI/ADR-RES ovarian) greater than 100000 nM, a GI50 (OVCAR-3 ovarian) of 2230 nM and a TGI (OVCAR-3 ovarian) of 3990 nM. The GI50 (OVCAR-5 ovarian) was 1880 nM, the TGI (OVCAR-5 ovarian) was 4990 nM and the GI50 (RXF 393 renal) was 1870 nM. It also gave a TGI (RXF 393 renal) of 3360 nM, a GI50 (SF-268 CNS) of 2580 nM and a TGI (SF-268 CNS) of 5580 nM. It also gave a GI50 (SF-295 CNS) of 1590 nM, a TGI (SF-295 CNS) of 2940 nM and a GI50 (SF-539 CNS) of 1480 nM. For the same molecule, the TGI (SF-539 CNS) was 2820 nM, the GI50 (SK-MEL-2 melanoma) was 2130 nM and the TGI (SK-MEL-2 melanoma) was 5440 nM. The GI50 (SK-MEL-28 melanoma) was 1280 nM, the TGI (SK-MEL-28 melanoma) was 2570 nM and the GI50 (SK-MEL-5 melanoma) was 1570 nM. The TGI (SK-MEL-5 melanoma) was 2930 nM, the GI50 (SK-OV-3 ovarian) was 2130 nM and the TGI (SK-OV-3 ovarian) was 3930 nM. The GI50 (SN12C renal) was 1650 nM, the TGI (SN12C renal) was 3080 nM and the GI50 (SNB-19 CNS) was 2230 nM. It also gave a TGI (SNB-19 CNS) of 4360 nM, a GI50 (SNB-75 CNS) of 1780 nM and a TGI (SNB-75 CNS) of 3280 nM. It also gave a GI50 (SR leukemia) greater than 100000 nM, a TGI (SR leukemia) greater than 100000 nM and a GI50 (SW-620 colon) of 1940 nM. For the same molecule, the TGI (SW-620 colon) was 3830 nM, the GI50 (TK-10 renal) was 433 nM and the TGI (TK-10 renal) was 1460 nM. For the same molecule, the GI50 (UACC-257 melanoma) was 1630 nM, the TGI (UACC-257 melanoma) was 3570 nM and the GI50 (UACC-62 melanoma) was 1290 nM. For the same molecule, the TGI (UACC-62 melanoma) was 2660 nM, the GI50 (UO-31 renal) was 1920 nM and the TGI (UO-31 renal) was 3800 nM.
